From BindingDB's records for doi:10.1021/jm9801197 (Kennesaw State University, 1999)

Legend:
[1] = Compound was evaluated for its binding affinity against Cannabinoid receptor 1 in Guinea pig ileum (GPI) using [3H]CP-55940 ligand
[2] = Compound was evaluated for its binding affinity against Cannabinoid receptor 2 in Guinea pig ileum (GPI) using [3H]CP-55940 ligand
[3] = Compound was evaluated for its binding affinity against Cannabinoid receptor 1 in Guinea pig ileum (GPI) using [3H]SR-141,716A ligand
[4] = Compound was evaluated for its binding affinity against Cannabinoid receptor 1 in Guinea pig ileum (GPI) using [3H]SR-141,716A ligand at site 2
[5] = Compound was evaluated for its binding affinity against Cannabinoid receptor 1 in Guinea pig ileum (GPI) using [3H]SR-141,716A ligand at site 1

Structure (SMILES) | Ki [1] [nM] | Ki [2] [nM] | Ki [3] [nM] | Ki [4] [nM] | Ki [5] [nM]
C1=C(CCN2CCOCC2)c2ccccc2/C1=C\c1cccc2ccccc12 [4-(2-{3-[1-Naphthalen-1-yl-meth-(Z)-ylidene]-3H-inden-1-yl}-ethyl)-morpholine] | 148 | 132 | 928 |  | 
CC1=C(CCN2CCOCC2)c2ccccc2/C1=C/c1cccc2ccccc12 [4-(2-{2-Methyl-3-[1-naphthalen-1-yl-meth-(Z)-ylidene]-3H-inden-1-yl}-ethyl)-morpholine] |  | 2.1 |  |  | 
C1=C(CCN2CCOCC2)c2ccccc2/C1=C/c1cccc2ccccc12 [4-(2-{3-[1-Naphthalen-1-yl-meth-(E)-ylidene]-3H-inden-1-yl}-ethyl)-morpholine] | 2.7 | 2.7 |  | 611 | 11
